The values that follow come from US9796711B2, “Substituted pyrazolo[3,4-b]pyridin-6-carboxylic acids and method of use” (AbbVie S.àr.l., priority 2015, dated 2017).

In experiment [1] the target is T1, ΔF508-CFTR (Homo sapiens, UniProt P13569, DEL508-508).
T1 construct: host or cells: CFBE41o-, doxycycline-inducible
Description: CFTR cell surface levels using HRP-tagged ΔF508-CFTR expressing CFBE cells, in the presence of a co-corrector. Type of experiment: cell-based. The essentials: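 Cells were seeded with 0.5 μg/mL doxycycline and held 68 h at 37 °C. Test compounds plus 3 μM co-corrector (final 0.1% DMSO) were then added for 20 h at 33 °C. Washed cells received HRP substrate, and luminescence was normalized between DMSO and 3 μM co-corrector controls.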

Experiment [2] addresses T1, ΔF508-CFTR. Put plainly: CFTR cell surface levels using HRP-tagged ΔF508-CFTR expressing CFBE cells, intrinsic corrector capacity. Format: cell-based. In short, it runs like this: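 Here the cells express ΔF508-CFTR with horseradish peroxidase inserted in extracellular loop 4, so only rescued channel at the surface gives luminescent signal. Compounds act on their own, 20 h at the reduced temperature of 33 °C; values are percent activity relative to DMSO and a 3 μM corrector.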

Setting [3] is: HRP-tagged ΔF508-CFTR expressing CFBE cells, in the presence of 3 μM co-corrector.
Where [4] appears, read: HRP-tagged ΔF508-CFTR expressing CFBE cells, in the presence of 3 μM co-corrector, read-out: EC50.
Setting [5] is: HRP-tagged ΔF508-CFTR CFBE41o- cells, compounds alone (intrinsic corrector capacity), 20 hours at 33° C., positive control 3 μM corrector.
The mark [6] stands for this setting: HRP-tagged ΔF508-CFTR CFBE41o- cells, compounds alone (intrinsic corrector capacity), 20 hours at 33° C., read-out: EC50.
[7] abbreviates: HRP-tagged ΔF508-CFTR expressing CFBE cells, intrinsic corrector capacity (no co-corrector), 33° C., 20 hours.
The mark [8] stands for this setting: HRP-tagged ΔF508-CFTR expressing CFBE cells, intrinsic corrector capacity (no co-corrector), 33° C., 20 hours, read-out: EC50.

T1 sequence (P13569 with tags, fused parts or gaps DEL508-508): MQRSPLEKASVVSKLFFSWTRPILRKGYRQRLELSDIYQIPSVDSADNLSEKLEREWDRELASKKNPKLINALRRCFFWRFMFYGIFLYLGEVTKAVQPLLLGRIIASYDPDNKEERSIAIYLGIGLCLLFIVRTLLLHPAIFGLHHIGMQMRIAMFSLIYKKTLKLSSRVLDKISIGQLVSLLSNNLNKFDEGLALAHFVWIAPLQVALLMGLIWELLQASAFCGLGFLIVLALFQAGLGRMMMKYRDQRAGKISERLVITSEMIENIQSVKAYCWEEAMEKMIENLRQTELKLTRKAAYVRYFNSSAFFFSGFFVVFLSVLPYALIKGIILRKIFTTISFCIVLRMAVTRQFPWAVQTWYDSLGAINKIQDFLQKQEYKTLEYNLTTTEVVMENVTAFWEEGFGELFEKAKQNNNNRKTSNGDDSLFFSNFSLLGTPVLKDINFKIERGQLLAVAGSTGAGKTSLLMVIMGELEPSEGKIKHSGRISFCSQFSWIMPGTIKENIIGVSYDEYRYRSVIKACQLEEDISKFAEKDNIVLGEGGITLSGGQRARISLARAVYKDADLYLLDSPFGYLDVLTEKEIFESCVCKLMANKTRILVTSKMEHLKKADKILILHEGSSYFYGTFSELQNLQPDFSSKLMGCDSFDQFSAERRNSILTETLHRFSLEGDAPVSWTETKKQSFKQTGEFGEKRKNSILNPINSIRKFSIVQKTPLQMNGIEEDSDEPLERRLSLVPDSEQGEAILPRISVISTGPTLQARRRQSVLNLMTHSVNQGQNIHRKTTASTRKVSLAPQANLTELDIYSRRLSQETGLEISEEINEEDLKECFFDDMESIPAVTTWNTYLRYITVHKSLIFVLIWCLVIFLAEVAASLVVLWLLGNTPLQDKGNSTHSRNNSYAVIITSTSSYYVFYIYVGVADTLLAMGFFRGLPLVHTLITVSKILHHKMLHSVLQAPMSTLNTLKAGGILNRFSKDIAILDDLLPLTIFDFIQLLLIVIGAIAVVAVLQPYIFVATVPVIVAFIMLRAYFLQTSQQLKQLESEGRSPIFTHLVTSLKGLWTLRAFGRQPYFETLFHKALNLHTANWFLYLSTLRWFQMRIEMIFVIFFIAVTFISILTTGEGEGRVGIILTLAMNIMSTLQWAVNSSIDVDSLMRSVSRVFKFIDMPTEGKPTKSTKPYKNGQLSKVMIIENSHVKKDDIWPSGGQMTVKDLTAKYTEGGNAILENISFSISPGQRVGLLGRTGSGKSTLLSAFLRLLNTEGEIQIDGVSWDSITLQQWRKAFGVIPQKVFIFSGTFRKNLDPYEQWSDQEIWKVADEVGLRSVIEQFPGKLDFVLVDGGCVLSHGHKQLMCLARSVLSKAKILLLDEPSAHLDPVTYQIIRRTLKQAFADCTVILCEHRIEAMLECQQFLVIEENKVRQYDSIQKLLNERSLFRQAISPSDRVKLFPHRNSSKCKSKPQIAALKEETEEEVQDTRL

With `CC(C)c1nn(-c2cncc(N3CCOCC3)c2)c2nc(C(=O)O)cc(-c3ccc(N4CCOCC4)cc3)c12` [compound 211, 4-[4-(morpholin-4-yl)phenyl]-1-[5-(morpholin-4-yl)pyridin-3-yl]-3-(propan-2-yl)-1H-pyrazolo[3,4-b]pyridine-6-carboxylic acid], the “% Activation” value is given as 289.75% in experiment [1] (setting [3]) and 94.07% in experiment [2] (setting [5]). Moreover, the EC50 (usually the concentration needed to bring the measured effect to its halfway point) in experiment [1] (setting [4]) came out at 1090 nM; in experiment [2] (setting [6]), 2170 nM.
For the compound `CN1CCC[C@]12C[C@@H](Oc1cc(C(=O)O)nc3c1c(C1CCC1)nn3-c1ccccc1)C2` [compound 645, 3-cyclobutyl-4-{[(2s,4r)-5-methyl-5-azaspiro[3.4]octan-2-yl]oxy}-1-phenyl-1H-pyrazolo[3,4-b]pyridine-6-carboxylic acid], the “% Activation” value amounted to 270.05% in experiment [1] (setting [3]) and 111.55% in experiment [2] (setting [7]). Besides, the EC50 is 409 nM in experiment [1] (setting [4]) and 1070 nM in experiment [2] (setting [8]).
As to `CC(C)c1nn(-c2ccc(F)cc2)c2nc(C(=O)O)cc(N3CCC4(CCCO4)CC3)c12` [compound 401, 1-(4-fluorophenyl)-4-(1-oxa-8-azaspiro[4.5]decan-8-yl)-3-(propan-2-yl)-1H-pyrazolo[3,4-b]pyridine-6-carboxylic acid], the “% Activation” value in experiment [1] (setting [3]) was 306.07%; in experiment [2] (setting [7]) it was 136.97%. Further, the EC50 stood at 653 nM in experiment [1] (setting [4]) and 1100 nM in experiment [2] (setting [8]).
As for `Cc1nn(-c2ccccc2)c2nc(C(=O)O)cc(-c3ccc(N4CCC(O)C4)cc3)c12` (centres unmarked) [compound 153, 4-[4-(3-hydroxypyrrolidin-1-yl)phenyl]-3-methyl-1-phenyl-1H-pyrazolo[3,4-b]pyridine-6-carboxylic acid], the “% Activation” value came to 386.85% in experiment [1] (setting [3]) and 198.45% in experiment [2] (setting [5]). Further, the EC50 in experiment [1] (setting [4]) worked out at 1200 nM; in experiment [2] (setting [6]) it was 1530 nM.
On to `O=C(O)c1cc(NCC2CCOCC2)c2c(C3CCC3)nn(-c3ccccc3)c2n1` [compound 590, 3-cyclobutyl-4-{[(oxan-4-yl)methyl]amino}-1-phenyl-1H-pyrazolo[3,4-b]pyridine-6-carboxylic acid], for which the EC50 in experiment [1] was determined as 2030 nM; in experiment [2] it was 2610 nM. For the same compound, the “% Activation” value turned out to be 310.45% in experiment [1] (setting [3]) and 141.3% in experiment [2] (setting [7]).
For the compound `CC(C)(C)OC(=O)NC[C@H]1CCN(c2cc(C(=O)O)nc3c2c(C2CCC2)nn3-c2ccccc2)C1` [compound 672, 4-[(3R)-3-{[(tert-butoxycarbonyl)amino]methyl}pyrrolidin-1-yl]-3-cyclobutyl-1-phenyl-1H-pyrazolo[3,4-b]pyridine-6-carboxylic acid], the 50% effective concentration (EC50) in experiment [1] came out at 553 nM; in experiment [2], 748 nM. The entries for the “% Activation” value in experiment [1] (setting [3]) and in experiment [2] (setting [7]) were 343.15% and 141.6%, respectively.
For `CN1CCC(C2CCN(c3cc(C(=O)O)nc4c3c(C3CCC3)nn4-c3ccccc3)CC2)CC1` [compound 454, 3-cyclobutyl-4-(1′-methyl[4,4′-bipiperidin]-1-yl)-1-phenyl-1H-pyrazolo[3,4-b]pyridine-6-carboxylic acid], the “% Activation” value in experiment [1] (setting [3]) was found to be 470.3%; in experiment [2] (setting [7]), 253.5%. Also, the results for the EC50 in experiment [1] (setting [4]) and in experiment [2] (setting [8]) were 636 nM and 998 nM, respectively.
Take `COc1ccc(-n2nc(C)c3c(-c4ccc(N5CCOCC5)cc4)cc(C(=O)O)nc32)cn1` [compound 61, 1-(6-methoxypyridin-3-yl)-3-methyl-4-[4-(morpholin-4-yl)phenyl]-1H-pyrazolo[3,4-b]pyridine-6-carboxylic acid]: the “% Activation” value in experiment [1] (setting [3]) stood at 253.6%; in experiment [2] (setting [5]), 96.05%. Besides, the EC50 turned out to be 2350 nM in experiment [1] (setting [4]) and 3340 nM in experiment [2] (setting [6]).
In the case of `O=C(O)c1cc(OC2CCC(F)(F)CC2)c2c(C3CCC3)nn(-c3ccccc3)c2n1` [compound 578, 3-cyclobutyl-4-[(4,4-difluorocyclohexyl)oxy]-1-phenyl-1H-pyrazolo[3,4-b]pyridine-6-carboxylic acid], the “% Activation” value in experiment [1] (setting [3]) is given as 301.55%; in experiment [2] (setting [7]) it was 118.2%. Besides, the EC50 in experiment [1] (setting [4]) is 224 nM; in experiment [2] (setting [8]) it was 334 nM.
For `O=C(O)c1cc(-c2ccc(N3CCN(C4CC4)CC3)nc2)c2c(C3CCC3)nn(C3CCCCC3)c2n1` [compound 868, 3-Cyclobutyl-1-cyclohexyl-4-[6-(4-cyclopropylpiperazin-1-yl)-pyridin-3-yl]-1H-pyrazolo[3,4-b]pyridine-6-carboxylic acid], the entries for the “% Activation” value in experiment [1] (setting [3]) and in experiment [2] (setting [7]) were 337.8% and 140.3%, respectively. Moreover, the figures for the EC50 in experiment [1] (setting [4]) and in experiment [2] (setting [8]) were 176 nM and 239 nM, respectively.
On the same counts, the results for `CS(=O)(=O)[C@@H]1CCN(c2cc(C(=O)O)nc3c2c(C2CCC2)nn3-c2ccccc2)C1` [compound 467, 3-cyclobutyl-4-[(3R)-3-(methanesulfonyl)pyrrolidin-1-yl]-1-phenyl-1H-pyrazolo[3,4-b]pyridine-6-carboxylic acid] are 274.35%, 97.95%, 3340 nM and 3340 nM.
The matching figures for `CC(C)c1nn(-c2ccc(F)cc2)c2nc(C(=O)O)cc(N3CCCC(C(F)F)C3)c12` (centres unmarked) [compound 399, 4-[3-(difluoromethyl)piperidin-1-yl]-1-(4-fluorophenyl)-3-(propan-2-yl)-1H-pyrazolo[3,4-b]pyridine-6-carboxylic acid]: 336.55%, 137.6%, 475 nM and 824 nM.
With `Cc1nn(C2CCCC2)c2nc(C(=O)O)cc(-c3ccc(N4CCOCC4)nc3)c12` [compound 106, 1-cyclopentyl-3-methyl-4[6-(morpholin-4-yl)pyridin-3-yl]-1H-pyrazolo[3,4-b]pyridine-6-carboxylic acid], the “% Activation” value in experiment [1] (setting [3]) was 237.45%; in experiment [2] (setting [5]), 73%. For the same compound, the figures for the EC50 in experiment [1] (setting [4]) and in experiment [2] (setting [6]) were 2620 nM and 3340 nM, respectively.
As for `O=C(O)c1cc(N2CCC3C(CCN3C3COC3)C2)c2c(C3CCC3)nn(-c3ccc(F)cc3)c2n1` (centres unmarked) [compound 902, 3-cyclobutyl-1-(4-fluorophenyl)-4-[1-(oxetan-3-yl)octahydro-5H-pyrrolo[3,2-c]pyridin-5-yl]-1H-pyrazolo[3,4-b]pyridine-6-carboxylic acid], the “% Activation” value in experiment [1] (setting [3]) is reported as 411.75%; in experiment [2] (setting [7]), 193.9%. The concentration for a half-maximal effect (EC50) in experiment [1] (setting [4]) was determined as 114 nM; in experiment [2] (setting [8]) it was 230 nM.
For the compound `N#CC1CCN(c2ccc(-c3cc(C(=O)O)nc4c3c(C3CCC3)nn4-c3ccnc(N4CCCC4)c3)cn2)CC1` [compound 413, 4-[6-(4-cyanopiperidin-1-yl)pyridin-3-yl]-3-cyclobutyl-1-[2-(pyrrolidin-1-yl)pyridin-4-yl]-1H-pyrazolo[3,4-b]pyridine-6-carboxylic acid], the “% Activation” value in experiment [1] (setting [3]) amounted to 392.2%; in experiment [2] (setting [7]), 216.65%. Moreover, the values for the EC50 in experiment [1] (setting [4]) and in experiment [2] (setting [8]) were 338 nM and 527 nM, respectively.
The matching figures for `COC1CCN(CC2CCN(c3cc(C(=O)O)nc4c3c(C3CCC3)nn4-c3ccccc3)CC2)CC1` [compound 841, 3-cyclobutyl-4-{4-[(4-methoxypiperidin-1-yl)methyl]piperidin-1-yl}-1-phenyl-1H-pyrazolo[3,4-b]pyridine-6-carboxylic acid]: 457.1%, 225%, 314 nM and 532 nM.
Consider `Cc1nn(-c2ccccc2)c2nc(C(=O)O)cc(OCCN3CCS(=O)(=O)CC3)c12` [compound 334, 4-[2-(1,1-dioxo-lλ^6,4-thiazinan-4-yl)ethoxy]-3-methyl-1-phenyl-1H-pyrazolo[3,4-b]pyridine-6-carboxylic acid], for which the results for the “% Activation” value in experiment [1] (setting [3]) and in experiment [2] (setting [5]) were 226.6% and 36.645%, respectively. In addition, the EC50 in experiment [1] (setting [4]) is 1900 nM; in experiment [2] (setting [6]) it was 4170 nM.
For the compound `CC1(CO)CN(c2cc(C(=O)O)nc3c2c(C2CCC2)nn3-c2ccccc2)C1` [compound 511, 3-cyclobutyl-4-[3-(hydroxymethyl)-3-methylazetidin-1-yl]-1-phenyl-1H-pyrazolo[3,4-b]pyridine-6-carboxylic acid], the results for the “% Activation” value in experiment [1] (setting [3]) and in experiment [2] (setting [7]) were 214.6% and 56.48%, respectively. Moreover, the EC50 in experiment [1] (setting [4]) turned out to be 1030 nM; in experiment [2] (setting [8]), 3340 nM.
Take `Cc1nn(-c2cccc(N3CCOCC3)c2)c2nc(C(=O)O)cc(-c3ccc(N4CCOCC4)cc3)c12` [compound 32, 3-methyl-1-[3-(morpholin-4-yl)phenyl]-4-[4-(morpholin-4-yl)phenyl]-1H-pyrazolo[3,4-b]pyridine-6-carboxylic acid]: the “% Activation” value in experiment [1] (setting [3]) amounted to 399.6%; in experiment [2] (setting [5]) it was 176.7%. Moreover, the EC50 in experiment [1] (setting [4]) is 1390 nM; in experiment [2] (setting [6]), 638 nM.
As to `O=C(O)c1cc(OC[C@@H](F)C2CCOCC2)c2c(C3CCC3)nn(-c3ccccc3)c2n1` [compound 415, 3-cyclobutyl-4-[(2S)-2-fluoro-2-(oxan-4-yl)ethoxy]-1-phenyl-1H-pyrazolo[3,4-b]pyridine-6-carboxylic acid], the “% Activation” value in experiment [1] (setting [3]) amounted to 334.35%; in experiment [2] (setting [7]), 168.85%. In addition, the values for the concentration for a half-maximal effect (EC50) in experiment [1] (setting [4]) and in experiment [2] (setting [8]) were 249 nM and 487 nM, respectively.
